From patent publication US10947237B2, “Antimicrobial compounds and methods of making and using the same” (BIOVERSYS AG, priority 2015, dated 2021)

Experiments:
[1] = system: Eschericia coli (E. Coli) strain ATCC25922; test: standard microdilution assay, minimum inhibitory concentration (MIC); type: cell-based; details: Escherichia coli
Experimental: (§1) The in vitro activity of the compounds of the present disclosure can be determined. Antimicrobial testing is typically performed to determine the minimum inhibitory concentration (MIC). Minimum inhibitory concentrations (MICs) are determined by the microdilution method in a final volume of 100 μl according to protocols outlined by The Clinical and Laboratory Standards Institute (CLSI). Performance standards for reference strains are assessed within the same experimental design to maintain quality control. See, for example, Clinical Laboratory Standards Institute: Methods for dilution antimicrobial susceptibility tests for bacteria that grow aerobically M7-A8. Approved Standard-Eighth Edition. Wayne, Pa.: CLSI; December 2008; and Clinical Laboratory Standards Institute: Performance Standards for Antimicrobial Susceptibility Testing M100-S20; Approved Standard-Twentieth Edition. Wayne, Pa.: CLSI; June 2010. The compounds of the present disclosure were tested for antimicrobial activity. The Compounds 1-149 were run against Eschericia coli (E. Coli) strain ATCC25922 and against Staphylococcus aureus (S. aureus) 11540 strain using a standard microdilution assay to determine minimum inhibitory concentrations (MICs). […] It will be recognized by one skilled in the art that the compounds can be assessed against other bacterial organisms and that the presentation of data for activity against Eschericia coli and Staphylococcus aureus are illustrative and in no way is intended to limit the scope of the present disclosure. The compounds of the present disclosure can be assayed against a range of other microorganisms depending upon the performance activity desired to be gathered. Furthermore, the “+” and “−” representation and the selection of a cutoff value of 16 micrograms/mL is also illustrative and in no way is intended to limit the scope of the present disclosure.

[2] = system: Staphylococcus aureus (S. aureus) 11540 strain; test: as above; type: cell-based
Experimental: as §1

Row | Compound | MIC ([1]; Table 2, strain ATCC25922) [µg/mL] | MIC ([2]; Table 2, 11540 strain) [µg/mL] | MIC ([1]; ATCC25922, Table 2a) [µg/mL] | MIC ([2]; Table 2a) [µg/mL]
1 | N=C(N)NCC[C@@H]1CCC[C@@H](c2ccc(-n3cc4cc(CCNC5CCNCC5)[nH]c4nc3=O)cc2)N1 [Compound 101] | ≤ 16 | ≤ 16 |  | 
2 | CC(=N)NCC[C@H](CNC(C)=N)OCc1ccc(-n2cc3cc(-c4cc(CCC[C@H](C)N)cc(Cl)c4F)[nH]c3nc2=O)cc1 [Compound 169] |  |  | ≤ 16 | ≤ 16
3 | C[C@H](N)CCCc1cc(Cl)c(F)c(-c2cc3cn(-c4ccc(CO[C@H](CCN5CCNC5=O)CNC(=N)N)cc4)c(=O)nc3[nH]2)c1 [Compound 177] |  |  | ≤ 16 | ≤ 16
4 | C[C@H](N)CCCc1cc(Cl)c(F)c(-c2cc3cn(-c4ccc([C@@H]5C[C@@H](Nc6nccs6)C[C@@H](CCNC(=N)N)O5)cc4)c(=O)nc3[nH]2)c1 [Compound 123] | > 16 | ≤ 16 |  | 
5 | C[C@H](N)CCCc1cc(Cl)c(F)c(-c2cc3cn(-c4ccc([C@H]5CC(NC6=NCCN6)C[C@H](CCNC6=NCCN6)O5)cc4)c(=O)nc3[nH]2)c1 (some centres unmarked) [Compound 138] | ≤ 16 | ≤ 16 |  | 
6 | CC(=N)NCC[C@@H]1CCC[C@@H](c2ccc(-n3cc4cc(C5CCNC5)[nH]c4nc3=O)cc2)N1 (some centres unmarked) [Compound 115] | ≤ 16 | ≤ 16 |  | 
7 | C[C@H](N)CCCc1cc(Cl)c(F)c(-c2cc3cn(-c4ccc([C@@H]5CCC[C@@H](CNCc6cn[nH]c6)N5)cc4)c(=O)nc3[nH]2)c1 [Compound 5] | ≤ 16 | ≤ 16 |  | 
8 | N=C(N)NCC[C@H](CF)OCc1ccc(-n2cc3cc(C4CCNC4)[nH]c3nc2=O)cc1 (some centres unmarked) [Compound 136] | > 16 | > 16 |  | 
9 | CC(=N)NC[C@H](CCNC(=N)N)OCc1ccc(-n2cc3cc(-c4cc(CCC[C@H](C)N)cc(Cl)c4F)[nH]c3nc2=O)cc1 [Compound 175] |  |  | ≤ 16 | ≤ 16
10 | C[C@H](N)CCCc1cc(Cl)c(F)c(-c2cc3cn(-c4ccc([C@@H]5CCC[C@@H](CNCc6cccnn6)N5)cc4)c(=O)nc3[nH]2)c1 [Compound 6] | ≤ 16 | ≤ 16 |  | 
11 | O=c1nc2[nH]c(CCNC3CCNCC3)cc2cn1-c1ccc([C@@H]2CCC[C@@H](CCc3ncc[nH]3)N2)cc1 [Compound 102] | ≤ 16 | ≤ 16 |  | 
12 | C[C@H](N)CCCc1cc(Cl)c(F)c(-c2cc3cn(-c4ccc([C@@H]5CCC[C@@H](Cc6cnc(N)o6)N5)cc4)c(=O)nc3[nH]2)c1 [Compound 10] | > 16 | > 16 |  | 
13 | N=C(N)NCC[C@H](CNC(=N)N)OCc1ccc(-n2cc3cc(C4CCNC4)[nH]c3nc2=O)cc1 (some centres unmarked) [Compound 129] | ≤ 16 | ≤ 16 |  | 
14 | C=C[C@H]1C[C@@H](CCNC(=N)N)O[C@H](c2ccc(-n3cc4cc(C5CCNC5)[nH]c4nc3=O)cc2)C1 (some centres unmarked) [Compound 79] | > 16 | > 16 |  | 
15 | CC(=N)NCC[C@H](CN)OCc1ccc(-n2cc3cc(-c4cc(CCC[C@H](C)N)cc(Cl)c4F)[nH]c3nc2=O)cc1 [Compound 176] |  |  | ≤ 16 | ≤ 16
16 | C[C@H](N)CCCc1cc(Cl)c(F)c(-c2cc3cn(-c4ccc([C@@H]5C[C@H](Nc6nccs6)C[C@@H](CCNC(=N)N)O5)cc4)c(=O)nc3[nH]2)c1 [Compound 108] | ≤ 16 | ≤ 16 |  | 
17 | C[C@H](N)CCCc1cc(Cl)c(F)c(-c2cc3cn(-c4ccc(CN[C@H](CCNC(=N)N)CNc5cc(F)ccn5)cc4)c(=O)nc3[nH]2)c1 [Compound 91] | ≤ 16 | ≤ 16 |  | 
18 | C[C@H](N)CCCc1cc(Cl)c(F)c(-c2cc3cn(-c4ccc(CN[C@H](CCNC(=N)N)CNc5nc6ccccc6[nH]5)cc4)c(=O)nc3[nH]2)c1 [Compound 37] | ≤ 16 | ≤ 16 |  | 
19 | C[C@H](N)CCCc1cc(Cl)c(F)c(-c2cc3cn(-c4ccc([C@H]5CC[C@@H](CCNC(=N)N)O5)cc4)c(=O)nc3[nH]2)c1 [Compound 73] | ≤ 16 | ≤ 16 |  | 
20 | N=C(N)NCC[C@@H]1CN(c2ccc(-n3cc4cc(C5CCNC5)[nH]c4nc3=O)cc2)CCO1 (some centres unmarked) [Compound 147] | > 16 | > 16 |  | 

Row | Compound | MIC ([1]; Table 2, strain ATCC25922) [µg/mL] | MIC ([2]; Table 2, 11540 strain) [µg/mL] | MIC ([1]; ATCC25922, Table 2a) [µg/mL] | MIC ([2]; Table 2a) [µg/mL]
21 | C[C@H](N)CCCc1cc(Cl)c(F)c(-c2cc3cn(-c4ccc(CO[C@@H](CCNC(=N)N)CNC(=N)N)cc4)c(=O)nc3[nH]2)c1 [Compound 174] |  |  | ≤ 16 | ≤ 16
22 | C[C@H](N)CCCc1cc(Cl)c(F)c(-c2cc3cn(-c4ccc(CN[C@H](CCNC(=N)N)CNc5nc6cnccc6o5)cc4)c(=O)nc3[nH]2)c1 [Compound 56] | ≤ 16 | ≤ 16 |  | 
23 | C[C@H](N)CCCc1cc(Cl)c(F)c(-c2cc3cn(-c4ccc(CO[C@@H](CN)CCNC(=N)N)cc4)c(=O)nc3[nH]2)c1 [Compound 68] | ≤ 16 | ≤ 16 |  | 
24 | C=C[C@H]1C[C@@H](CCNC(=N)N)O[C@H](c2ccc(-n3cc4cc(-c5cc(CCC[C@H](C)N)cc(Cl)c5F)[nH]c4nc3=O)cc2)C1 [Compound 78] | ≤ 16 | ≤ 16 |  | 
25 | C[C@@H](CCNC(=N)N)OCc1ccc(-n2cc3cc(CCNC4CCNCC4)[nH]c3nc2=O)cc1 [Compound 112] | > 16 | > 16 |  | 
26 | Cc1cn(CC[C@@H]2CCC[C@@H](c3ccc(-n4cc5cc(-c6cc(CCC[C@H](C)N)cc(Cl)c6F)[nH]c5nc4=O)cc3)N2)c(=O)o1 [Compound 8] | ≤ 16 | ≤ 16 |  | 
27 | N=C(N)NCC[C@@H]1C[C@@H](Nc2nccs2)C[C@@H](c2ccc(-n3cc4cc(C5CCNC5)[nH]c4nc3=O)cc2)O1 (some centres unmarked) [Compound 125] | > 16 | > 16 |  | 
28 | N=C(N)NCC[C@H](CNc1ncc[nH]1)OCc1ccc(-n2cc3cc(C4CCNC4)[nH]c3nc2=O)cc1 (some centres unmarked) [Compound 113] | ≤ 16 | > 16 |  | 
29 | C[C@H](N)CCCc1cc(Cl)c(F)c(-c2cc3cn(-c4ccc(CN[C@H](CCNC(=N)N)CNc5ccncc5)cc4)c(=O)nc3[nH]2)c1 [Compound 58] | ≤ 16 | ≤ 16 |  | 
30 | C[C@H](N)CCCc1cc(Cl)c(F)c(-c2cc3cn(-c4ccc([C@H]5CC(NC(=N)N)C[C@H](CCNC(=N)N)O5)cc4)c(=O)nc3[nH]2)c1 (some centres unmarked) [Compound 128] | ≤ 16 | ≤ 16 |  | 
31 | C[C@H](N)CCCc1cc(Cl)c(F)c(-c2cc3cn(-c4ccc(N5CCO[C@H](CCNC(=N)N)C5)cc4)c(=O)nc3[nH]2)c1 [Compound 133] | ≤ 16 | ≤ 16 |  | 
32 | Cc1nnc(NC[C@@H](CCNC(=N)N)NCc2ccc(-n3cc4cc(-c5cc(CCC[C@H](C)N)cc(Cl)c5F)[nH]c4nc3=O)cc2)[nH]1 [Compound 55] | ≤ 16 | ≤ 16 |  | 
33 | C[C@H](N)CCCc1cc(Cl)c(F)c(-c2[nH]c3nc(=O)n(-c4ccc([C@H](C)NCCCNC(=N)N)cc4)cc3c2[N+](=O)[O-])c1[N+](=O)[O-] [Compound 111] | > 16 | ≤ 16 |  | 
34 | CC(C)(N)CCCc1cc(Cl)c(F)c(-c2cc3cn(-c4ccc(CO[C@H](CCNC(=N)N)CNC(=N)N)cc4)c(=O)nc3[nH]2)c1 [Compound 166] |  |  | ≤ 16 | ≤ 16
35 | N=C(N)NCC[C@H](CNc1ncc[nH]1)OCc1ccc(-n2cc3cc(CCNC4CCNCC4)[nH]c3nc2=O)cc1 [Compound 104] | ≤ 16 | ≤ 16 |  | 
36 | N=C(N)NCC[C@H](CNc1ccccn1)OCc1ccc(-n2cc3cc(CCNC4CCNCC4)[nH]c3nc2=O)cc1 [Compound 105] | > 16 | > 16 |  | 
37 | C[C@H](N)CCCc1cc(Cl)c(F)c(-c2cc3cn(-c4ccc([C@@H]5CC[C@H](CNC(=N)N)O5)cc4)c(=O)nc3[nH]2)c1 [Compound 70] | ≤ 16 | ≤ 16 |  | 
38 | C[C@H](N)CCCc1cc(Cl)c(F)c(-c2cc3cn(-c4ccc(CN[C@H](CCNC(=N)N)CNc5ncccc5F)cc4)c(=O)nc3[nH]2)c1 [Compound 106] | ≤ 16 | ≤ 16 |  | 
39 | CC1=NCC[C@@H]2CCC[C@@H](c3ccc(-n4cc5cc(C6CCNC6)[nH]c5nc4=O)cc3)N12 (some centres unmarked) [Compound 116] | > 16 | > 16 |  | 
40 | C=C[C@H]1C[C@@H](CCNC(=N)N)O[C@H](c2ccc(-n3cc4cc(C5CCN(C(=N)N)C5)[nH]c4nc3=O)cc2)C1 (some centres unmarked) [Compound 80] | > 16 | > 16 |  | 
